Data reported in ChEMBL document CHEMBL1127961, “Antineoplastic agents 315. Isolation and structure of the marine sponge cancer cell growth inhibitor phakellistatin 5” (1994).
Several values for one entry are separate records, joined by “and”; a condition that tells them apart may be missing. Equal entries are not always repeated.

System: NCI
Experiment: Antineoplastic activity against NCI human leukemia cancer cell line
Format: functional

## CC[C@H](C)[C@@H]1NC(=O)C(C)NC(=O)[C@H](CCSC)NC(=O)C(C)NC(=O)[C@H](CC(N)=O)NC(=O)[C@H](Cc2ccccc2)NC(=O)C2CCCN2C1=O (single isomer, unassigned) [PHAKELLI STATIN 5]
  GI50: 3 µM and 0.6 µM
